What follows are compounds tested against human GluN1/GluN2B NMDA receptors (Homo sapiens, UniProt Q05586+Q13224) (assay: Cell-based calcium flux (FLIPR) assay on cloned human NR1/NR2B ion channels expressed in mammalian cells). Conditions: standard assay; human GluN1/GluN2B, calcium flux (FLIPR), glutamate ~EC80.
Summary of the method: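 Calcium influx followed by FLIPR fluorescence after 5 min compound exposure and a further 5 min co-agonist challenge: 10 μM glycine with glutamate at ~EC80 (standard) or EC40 (HTS).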

Sequence of human GluN1/GluN2B NMDA receptors (Q13224 27-1484, other chains not shown): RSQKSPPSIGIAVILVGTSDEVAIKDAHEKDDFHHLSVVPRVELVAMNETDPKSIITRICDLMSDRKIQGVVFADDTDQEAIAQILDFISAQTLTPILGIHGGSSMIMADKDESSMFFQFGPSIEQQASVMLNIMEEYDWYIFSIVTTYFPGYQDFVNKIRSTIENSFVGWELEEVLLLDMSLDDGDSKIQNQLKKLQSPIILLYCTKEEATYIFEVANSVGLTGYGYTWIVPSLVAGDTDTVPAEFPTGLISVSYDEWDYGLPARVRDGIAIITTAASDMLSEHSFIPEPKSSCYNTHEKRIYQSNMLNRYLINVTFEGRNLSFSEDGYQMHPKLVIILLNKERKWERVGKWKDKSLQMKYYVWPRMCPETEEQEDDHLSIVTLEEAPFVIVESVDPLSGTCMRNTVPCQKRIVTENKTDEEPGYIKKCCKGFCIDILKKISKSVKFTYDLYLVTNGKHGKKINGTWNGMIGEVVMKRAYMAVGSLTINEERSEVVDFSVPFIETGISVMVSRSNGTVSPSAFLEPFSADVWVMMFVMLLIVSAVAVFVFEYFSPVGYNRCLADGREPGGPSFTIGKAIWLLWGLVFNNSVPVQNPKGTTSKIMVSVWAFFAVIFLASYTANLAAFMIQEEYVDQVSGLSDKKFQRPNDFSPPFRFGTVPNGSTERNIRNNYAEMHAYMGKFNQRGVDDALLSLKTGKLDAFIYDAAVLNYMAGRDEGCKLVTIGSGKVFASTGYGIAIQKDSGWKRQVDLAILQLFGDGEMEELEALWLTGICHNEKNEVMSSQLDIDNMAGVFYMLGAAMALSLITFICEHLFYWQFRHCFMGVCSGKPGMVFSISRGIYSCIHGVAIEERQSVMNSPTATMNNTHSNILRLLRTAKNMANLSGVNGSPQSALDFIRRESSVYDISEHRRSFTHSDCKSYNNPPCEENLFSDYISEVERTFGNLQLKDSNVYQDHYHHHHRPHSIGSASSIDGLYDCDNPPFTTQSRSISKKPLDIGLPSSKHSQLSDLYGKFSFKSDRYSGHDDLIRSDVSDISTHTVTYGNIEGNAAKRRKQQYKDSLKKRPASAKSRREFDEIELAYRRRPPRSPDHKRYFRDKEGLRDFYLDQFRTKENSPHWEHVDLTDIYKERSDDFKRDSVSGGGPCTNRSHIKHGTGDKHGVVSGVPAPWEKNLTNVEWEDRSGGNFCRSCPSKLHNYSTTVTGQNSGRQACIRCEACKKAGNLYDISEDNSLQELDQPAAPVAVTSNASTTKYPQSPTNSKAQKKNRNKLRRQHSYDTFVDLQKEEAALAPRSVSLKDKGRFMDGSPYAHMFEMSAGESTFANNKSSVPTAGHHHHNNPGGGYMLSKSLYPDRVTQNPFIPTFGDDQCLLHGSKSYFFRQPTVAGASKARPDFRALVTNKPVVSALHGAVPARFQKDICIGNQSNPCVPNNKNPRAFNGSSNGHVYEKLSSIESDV

Compound | IC50 [µM]
Cn1ccc(NCc2cn(-c3ccc(F)c(OC(F)F)c3)nn2)n1 [Example 101, N-[[1-[3-(Difluoromethoxy)-4-fluoro-phenyl]triazol-4-yl]methyl]-1-methyl-pyrazol-3-amine] | 0.374
Cn1cc(NCc2cn(-c3ccc(F)c(OC(F)F)c3)nn2)cn1 [Example 102, N-[[1-[3-(Difluoromethoxy)-4-fluoro-phenyl]triazol-4-yl]methyl]-1-methyl-pyrazol-4-amine] | 3.25
COc1ncccc1OCc1cn(-c2ccc(Cl)c(OC(F)F)c2)nn1 [Example 103, 3-[[1-[4-Chloro-3-(difluoromethoxy)phenyl]triazol-4-yl]methoxy]-2-methoxy-pyridine] | 0.064
Cc1ccc(OCc2cn(-c3ccc(Cl)c(OC(F)F)c3)nn2)cn1 [Example 104, 5-[[1-[4-Chloro-3-(difluoromethoxy)phenyl]triazol-4-yl]methoxy]-2-methyl-pyridine] | 0.729
FC(F)Oc1cc(-n2cc(COc3ncccc3Cl)nn2)ccc1Cl [Example 105, 3-Chloro-2-[[1-[4-chloro-3-(difluoromethoxy)phenyl]triazol-4-yl]methoxy]pyridine] | 0.059
COc1cc(Cl)cnc1OCc1cn(-c2ccc(Cl)c(OC(F)F)c2)nn1 [Example 106, 5-Chloro-2-[[1-[4-chloro-3-(difluoromethoxy)phenyl]triazol-4-yl]methoxy]-3-methoxy-pyridine] | 0.276
Fc1cccnc1OCc1cn(-c2ccc(Cl)c(OC(F)F)c2)nn1 [Example 107, 2-[[1-[4-Chloro-3-(difluoromethoxy)phenyl]triazol-4-yl]methoxy]-3-fluoro-pyridine] | 0.119
COc1cccnc1OCc1cn(-c2ccc(Cl)c(OC(F)F)c2)nn1 [Example 108, 2-[[1-[4-Chloro-3-(difluoromethoxy)phenyl]triazol-4-yl]methoxy]-3-methoxy-pyridine] | 0.114
FC(F)c1cc(-n2cc(CNc3ncccn3)nn2)ccc1Cl [Example 109, N-[[1-[4-Chloro-3-(difluoromethyl)phenyl]triazol-4-yl]methyl]pyrimidin-2-amine] | 1.26
FC(F)c1cc(-n2cc(CNc3ccncn3)nn2)ccc1Cl [Example 110, N-[[1-[4-Chloro-3-(difluoromethyl)phenyl]triazol-4-yl]methyl]pyrimidin-4-amine] | 7.57
Fc1ccc(-n2cc(COc3ccccn3)nn2)cc1C(F)F [Example 111, 2-[[1-[3-(Difluoromethyl)-4-fluoro-phenyl]triazol-4-yl]methoxy]pyridine] | 0.684
Fc1ccc(-n2cc(COc3ccc(Cl)cn3)nn2)cc1C(F)F [Example 112, 5-Chloro-2-[[1-[3-(difluoromethyl)-4-fluoro-phenyl]triazol-4-yl]methoxy]pyridine] | 0.056
Cc1cccc(OCc2cn(-c3ccc(F)c(C(F)F)c3)nn2)n1 [Example 113, 2-[[1-[3-(Difluoromethyl)-4-fluoro-phenyl]triazol-4-yl]methoxy]-6-methyl-pyridine] | 0.038
Cc1ccc(OCc2cn(-c3ccc(F)c(C(F)F)c3)nn2)nc1 [Example 114, 2-[[1-[3-(Difluoromethyl)-4-fluoro-phenyl]triazol-4-yl]methoxy]-5-methyl-pyridine] | 0.021
Cc1ccnc(OCc2cn(-c3ccc(F)c(C(F)F)c3)nn2)c1 [Example 115, 2-[[1-[3-(Difluoromethyl)-4-fluoro-phenyl]triazol-4-yl]methoxy]-4-methyl-pyridine] | 0.17
Cc1ccnc(OCc2cn(-c3ccc(F)c(OC(F)F)c3)nn2)c1 [Example 116, 2-[[1-[3-(Difluoromethoxy)-4-fluoro-phenyl]triazol-4-yl]methoxy]-4-methyl-pyridine] | 0.102
Fc1ccc(-n2cc(COc3ccc(Cl)cn3)nn2)cc1OC(F)F [Example 117, 5-Chloro-2-[[1-[3-(difluoromethoxy)-4-fluoro-phenyl]triazol-4-yl]methoxy]pyridine] | 0.073
